Reference: paper PMC4233638, “Proanthocyanidin synthesis in Theobroma cacao: genes encoding anthocyanidin synthase, anthocyanidin reductase, and leucoanthocyanidin reductase” (BMC Plant Biology, 2013)

Molecular target: T1, TcLAR (Theobroma cacao, UniProt D3XFG4)
T1 construct: gene LAR; full-length ORF (361 residues, 1,083 bp) in pET-21a, C-terminal 6xHis tag kept, E. coli Rosetta (DE3), purified by Magne-His
Assay: HPLC-UV and radioactivity detection of catechin product
Type: biochemical
Settings: labelled compound (3H); 0.4 mM substrate, 0.5 mM NADPH, 100 mM potassium phosphate pH 7.0, 4 mM DTT, 10% glycerol, 30 C, 1 h

T1 sequence (D3XFG4 entry or part of it): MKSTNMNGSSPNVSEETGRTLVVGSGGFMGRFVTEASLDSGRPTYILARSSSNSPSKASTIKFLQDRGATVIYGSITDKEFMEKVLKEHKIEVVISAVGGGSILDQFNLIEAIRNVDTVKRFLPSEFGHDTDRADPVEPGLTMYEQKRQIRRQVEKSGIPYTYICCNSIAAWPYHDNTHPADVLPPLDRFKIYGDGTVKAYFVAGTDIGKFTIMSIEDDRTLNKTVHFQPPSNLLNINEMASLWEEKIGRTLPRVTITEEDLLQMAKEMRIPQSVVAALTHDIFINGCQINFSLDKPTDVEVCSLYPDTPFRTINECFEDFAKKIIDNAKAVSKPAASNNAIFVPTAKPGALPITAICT

In the case of `Oc1cc(O)c2c(c1)O[C@H](c1ccc(O)c(O)c1)[C@@H](O)[C@H]2O` [leucocyanidin], the “HPLC-UV and radioactivity detection of catechin product” value is reported as “detected when TcLAR protein was incubated with ^3H -labeled leucocyanidin”.
